Test results published in paper PMC5952519, “Screening a repurposing library, the Medicines for Malaria Venture Stasis Box, against Schistosoma mansoni” (Parasites & Vectors, 2018).
“Also recorded” adds a separate entry of the source. Where two headings read alike, the source gives them in different places.

Columns and labels:
MRC5 cells = conditions: read-out: MRC5 cells CC50; ref provided by MMV; cited from earlier work
[1] = Cytotoxicity assay on L6 cells (resazurin / Alamar Blue); type: cell-based; conditions: rat
Procedure: Rat skeletal myoblast L6 cells (2 × 10^4 cells/ml) were exposed to serial dilutions of the 11 lead compounds (1:3, range: 0.37–90 μM). Podophyllotoxin (PPT, 1:3, range: 2 × 10^-4 –0.05 μg/ml) was used as a positive control. After a 72-hour incubation, resazurin dye (Alamar Blue) was added to the plates. […] Each drug was tested in duplicate and each assay was repeated once.
(§1) For in vitro assays, the average viability scores between replicates (or individual adult worms) were normalised to the controls and converted into percentage activity (or effect). Drug IC50 values (for NTS or adult worms) were calculated by computing different dose-effect values using CompuSyn2 software (ComboSyn Inc., 2007). The linear correlation coefficient (r) reflects the experimental fit. In this study, r-values > 0.70 were considered acceptable. […] The selectivity index (SI) of each drug was calculated by dividing the CC50 measured on the L6 cells by the IC50 measured on the parasites. For in vivo studies, as previously described, the worm burden reduction [%] was determined by comparing the worm burden of treated and untreated mice. For statistical significance a Kruskal-Wallis test was employed (R version 3.2.2).

[2] = test system: newly transformed schistosomula (NTS) of Schistosoma mansoni; experiment: In vitro assay on newly transformed schistosomula (NTS), viability scoring by microscopy; type: cell-based
Description: (§2) The S. mansoni (Liberian strain) life-cycle, is maintained in-house at the Swiss Tropical and Public Health Institute (Swiss TPH), as described before. Biomphalaria glabrata were infected with 6 to 8 S. mansoni miracidia. They were kept in pond water under natural light, temperature and humidity conditions until the infectious stage, the cercariae, started to shed. The cercariae were mechanically transformed to schistosomula, the NTS, using a procedure adapted from Milligan & Jolly. NTS were incubated (37 °C, 5% CO2) until use for 12 to maximum 24 h in M199 medium supplemented with FCS and antibiotics. Adult S. mansoni of both sexes were collected by dissecting the intestinal veins of mice euthanized 7 weeks post-infection. All the adult worms recovered were incubated for maximum one week until use in RPMI medium supplemented with FCS and penicillin-streptomycin.
For in vitro screening on NTS, the parasite suspension was adjusted to 50 NTS/100 μl in supplemented M199 medium and added to the drug dilutions in 96-wells plates (Eppendorf AG, Hamburg, Germany). NTS were initially exposed to a drug concentration of 10 μM (0.1% DMSO). Each drug was tested in duplicate.
Hit compounds identified on NTS progressed into testing on adult worms. Females, males and pairs (3 to 5 worms per well) were exposed to the drug dilution in supplemented RPMI medium. The assays were performed in duplicate in 24-wells plates (Eppendorf AG, Hamburg, Germany). […] Each assay on NTS was performed in triplicate with serial drug dilutions (1:2, range: 10–0.16 μM) and repeated once. […] Each IC50 assay was repeated once. These assays were repeated for the lead compounds in presence of albumin (BSA) at the human physiological concentration of 45 g/l (AlbuMAX II, Gibco). For all in vitro assays (NTS and adults), negative controls containing the highest concentration of DMSO were included. Worms incubated with praziquantel served as positive controls. The parasites were evaluated under an inverted optical microscope over 3 days after drug exposure. Their movement and morphology were assessed and scored as described previously.
as §1

adult S. mansoni [3] = experiment: In vitro assay on adult S. mansoni worms, viability scoring by microscopy; type: cell-based; conditions: Schistosoma mansoni, read-out: Adult IC50
Description: as §2
(§3) Hit compounds identified on NTS progressed into testing on adult worms. Females, males and pairs (3 to 5 worms per well) were exposed to the drug dilution in supplemented RPMI medium. The assays were performed in duplicate in 24-wells plates (Eppendorf AG, Hamburg, Germany). […] Each IC50 assay was repeated once. These assays were repeated for the lead compounds in presence of albumin (BSA) at the human physiological concentration of 45 g/l (AlbuMAX II, Gibco). For all in vitro assays (NTS and adults), negative controls containing the highest concentration of DMSO were included. Worms incubated with praziquantel served as positive controls. The parasites were evaluated under an inverted optical microscope over 3 days after drug exposure. Their movement and morphology were assessed and scored as described previously.
as §1, with “Drug IC50 values (for NTS or adult worms) were calculated by computing different dose-effect values using CompuSyn2 software (ComboSyn Inc., 2007).” left out

adult S. mansoni [4] = experiment: In vitro assay on adult S. mansoni worms in albumin-enriched medium (45 g/l); type: cell-based; conditions: Schistosoma mansoni, read-out: Adult IC50 with albumin
Procedure: as §3
as §1, with “Drug IC50 values (for NTS or adult worms) were calculated by computing different dose-effect values using CompuSyn2 software (ComboSyn Inc., 2007).” left out

S. mansoni = experiment: In vivo efficacy in mice harbouring a chronic S. mansoni infection (worm burden); set-up: species or system Schistosoma mansoni; conditions: for inhibition in vivo at 200 mg/kg: Schistosoma mansoni
Procedure: (§4) Three weeks old NMRI female mice were used (Charles Rivers, Germany) for in vivo drug efficacy studies. The animals were kept in groups of ten with constant access to food and water. After one week of habituation, mice were sub-cutaneously injected a suspension containing 100 S. mansoni cercariae in phosphate-buffered saline (PBS). The drugs (200 mg/kg single dose) were administered seven weeks post-infection by oral gavage to groups of 4 mice. They were dissolved in tap water with Tween80/ethanol (10%, 70:30). Untreated mice (n = 10) served as control and were dissected 7 weeks post-infection. Treated mice (n = 40) were euthanized with CO2 and dissected between 16 to 18 days post-drug administration. The worms were then collected, sexed and counted.
as §1

[5] = Survival of treated infected mice in the in vivo study; conditions: single 200 mg/kg oral dose
Procedure: as §4
Eight compounds had no effect on the worm burden in infected mice (worm burden reduction < 36%).

[6] = 72-hour incubation, read-out: L6 cells CC50
[7] = Schistosoma mansoni, 24 h; read-out: NTS IC50
[8] = Schistosoma mansoni, 48 h; read-out: NTS IC50
[9] = mice, single 200 mg/kg oral dose, 49-day-old adult infection, read-out: WBR (worm burden reduction)
[10] = mice, single 200 mg/kg oral dose, 49-day-old adult infection
[11] = po, read-out: WBR (worm burden reduction), mice, single 200 mg/kg oral dose, 49-day-old adult infection

Compound | CC50 (MRC5 cells) | CC50 at 72 h [1, 6] | IC50 [2, 7] | IC50 [2, 8] | IC50 (adult S. mansoni [3]; 24 h, standard medium) | IC50 (adult S. mansoni [3]; 48 h, standard medium) | IC50 (adult S. mansoni [4]; 24 h, albumin 45 g/l) | IC50 (adult S. mansoni [4]; 48 h, albumin 45 g/l) | IC50 (adult S. mansoni [4]; 72 h, albumin 45 g/l) | CC50 at 72 h [1] | inhibition in vivo at 200 mg/kg (S. mansoni; [9]) | Mean worm burden ± SD (S. mansoni; [10]) | other results
Nc1nc2ccc(Cl)cc2c2nc(-c3ccco3)nn12 [MMV001539] | 16 µM | 2.9 µM | 12.7 µM | 11 µM | 28.2 µM | 12.3 µM |  |  |  |  |  |  | 
CNCc1ccc(C)c(NC(=O)c2ccc(Nc3nc(-c4ccccc4)c4ccccc4n3)cc2)c1 [MMV690732] | 1.9 µM |  | 29.5 µM | 6.3 µM | 4.9 µM | 2.9 µM | 62.8 µM | 181 µM | 54.1 µM | 2.3 µM | 0% | 47.5 ± 24.3 | 
COc1ccc(NC(=O)c2ccc(-c3ccc(-c4noc(C)n4)cc3C)cc2)cc1N1CCN(C)CC1 [MMV003452] | 1.9 µM |  | 4.4 µM | 2.2 µM | 1.7 µM | 3 µM | 22.6 µM |  | 7.5 µM | 3.7 µM | 12.2% | 40.5 ± 17.2 | 
Fc1ccc(Cl)cc1-c1nc(Nc2ccncc2)c2nccnc2n1 [MMV690534] | 12.4 µM |  |  |  |  |  |  |  |  |  |  | 7.8 ± 7.5 | CC50 at 72 h ([1]; L6 skeletal myoblast cells, 72-hour incubation, read-out: L6 cells CC50): 74.5 µM; IC50 ([2]; Schistosoma mansoni, 24 h, read-out: NTS IC50): 11.8 µM; IC50 ([2]; Schistosoma mansoni, 48 h, read-out: NTS IC50): 14.3 µM; IC50 (adult S. mansoni [3]; 24 h): 17.4 µM; IC50 (adult S. mansoni [3]; 48 h): 19.3 µM; inhibition in vivo at 200 mg/kg (S. mansoni; [11]): > 50%
CC#CC(=O)Nc1ccc2ncnc(Nc3cccc(Br)c3)c2c1 [MMV690684] | 7 µM |  | 4 µM | 3.1 µM | 4.9 µM | 4.7 µM | 76.8 µM | 14.4 µM | 7.7 µM | 7 µM | 10% | 41.5 ± 16.5 | 
Cc1ccc(C(=O)N(CCCN)[C@@H](c2nc3cc(Cl)ccc3c(=O)n2Cc2ccccc2)C(C)C)cc1 [MMV690646, Ispinesib] | 0.2 µM |  | 3 µM | 1.1 µM | 3.7 µM |  | 32 µM | 122 µM | 33.6 µM |  |  |  | death of treated mice [5]: died prematurely; also recorded: death of the mice
CCOc1cc2ncc(C#N)c(Nc3ccc(F)c(Cl)c3)c2cc1NC(=O)/C=C/CN(C)C [MMV690765, Pelitinib] | 0.7 µM |  | 914 µM | > 1 µM | 4.2 µM | 3.4 µM | 652 µM | 226 µM | 124 µM | 11.8 µM | 0% | 84.0 ± 56.4 | 
CC[C@@H]1C(=O)N(C)c2cnc(Nc3ccc(C(=O)NC4CCN(C)CC4)cc3OC)nc2N1C1CCCC1 [MMV690787] | 0.1 µM |  |  |  |  |  |  |  |  |  | 0% | 48.3 ± 21.6 | 
O=C(O)Cc1cccc(OCCCN(Cc2cccc(C(F)(F)F)c2Cl)CC(c2ccccc2)c2ccccc2)c1 [MMV690466] | 8.4 µM | 1.6 µM | 14.6 µM | 3.8 µM | 2.9 µM | 2.3 µM | 18.1 µM | 89.7 µM | 47.6 µM |  | 35.9% | 10.3 ± 6.9 | effect on NTS at 10 μM ([2]; 10 μM, 48 h): high effect; also recorded: high activity
CC(C)(Cc1c[nH]c2ccc(Cl)cc12)NCCOc1ccccc1OCC1CC1 [MMV690599] | 2 µM | 3.4 µM | 10.5 µM | 3.5 µM |  |  |  |  |  |  |  | 44.7 ± 29.6 | IC50 (adult S. mansoni [4]; 24 h): 23.6 µM; IC50 (adult S. mansoni [4]; 48 h): 19.1 µM; IC50 (adult S. mansoni [4]; 72 h): 15.9 µM; IC50 (adult S. mansoni [3]; 48 h): 3.3 µM; inhibition in vivo at 200 mg/kg (S. mansoni; [11]): 3.2%
